Laboratory results published in patent US7273880B2, “Selective NPY (Y5) antagonists” (H. Lunbeck A/S, priority 1999, dated 2007).
Where a name gives a salt, the structure may show the parent alone.

Legend:
[1] = target: T1, human Y5 receptor (hNPY-5) (Homo sapiens, UniProt Q15761); assay: Radioligand binding to membranes, cloned human Y5 receptor; conditions: cloned human NPY Y5 receptor, radioligand competition binding; Tables 1-3; read-out: Ki, nM hNPY-5
T1 construct: expressed in transfected cells; host or cells: mouse fibroblast LM(tk-) cells, e.g. L-hY5-7 (ATCC CRL-11995)
T1 sequence (Q15761 1-445): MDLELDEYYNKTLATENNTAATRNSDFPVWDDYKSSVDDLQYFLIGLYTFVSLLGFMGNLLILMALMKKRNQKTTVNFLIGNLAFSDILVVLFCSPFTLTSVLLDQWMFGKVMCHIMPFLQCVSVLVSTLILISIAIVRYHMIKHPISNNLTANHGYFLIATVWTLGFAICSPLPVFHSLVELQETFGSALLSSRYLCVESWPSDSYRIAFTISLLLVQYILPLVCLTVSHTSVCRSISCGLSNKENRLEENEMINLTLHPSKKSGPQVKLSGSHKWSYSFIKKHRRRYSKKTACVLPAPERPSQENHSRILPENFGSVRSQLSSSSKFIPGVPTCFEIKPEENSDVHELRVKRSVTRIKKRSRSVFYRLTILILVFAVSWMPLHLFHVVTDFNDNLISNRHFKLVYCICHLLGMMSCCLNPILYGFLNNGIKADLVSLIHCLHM
Outline: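 Competition binding on membranes from stably transfected 293 or LM(tk-) cells, with 0.08 nM ¹²⁵I-PYY in pH 7.4 HEPES buffer plus 0.1% BSA, 120 min at 30 °C, filtration and counting. Nonspecific binding defined by 300 nM human NPY, or 100 nM human PP for Y4; nonlinear regression.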

Ki [1] | melting point | SMILES
2.9 nM | 70 to 75 °C | COc1ccc(C)cc1S(=O)(=O)NCCCCC(=O)Nc1nc2c(s1)CCCc1ccc(F)cc1-2 [Example 49, N1-(9-Fluoro-5,6-dihydro-4H-benzo[6,7]cyclohepta-[d][1,3]-thiazol-2-yl)-5-[(2-methoxy-5-methylphenyl)-sulfonyl]-aminopentanamide]
1.8 nM | 158 to 160 °C | O=S(=O)(N[C@H]1CC[C@H](CNc2nc3c(s2)CCCc2ccc(F)cc2-3)CC1)c1cccnc1 [Example 62, trans-1-Aza-9-fluoro-4,5-dihydro-2-{4-(3-pyridyl)sulfonylamino}cyclohexylmethylamino-3-thia-benzo[e]azulene]
150 nM | 53 to 55 °C | CCCN(C=O)C[C@H]1CC[C@H](Nc2nc3c(s2)CCOc2ccccc2-3)CC1 [Example 85, N-{[4-(4,5-Dihydrobenzo[2,3]oxepino[4,5-d][1,3]-thiazol-2-ylamino)cyclohexyl]methyl}-N-propylformamide]
12.2 nM | 165 to 170 °C | CCS(=O)(=O)N[C@H]1CC[C@H](CNc2nc3c(s2)CCOc2ccc(OC)cc2-3)CC1 [Example 64, trans-N2-(4-Ethylsulfonylamino)cyclohexylmethyl-9-methoxy-4,5-dihydro-benzo[2,3]oxepino[4,5-d][1,3]thiazol-2-amine]
 | 140 to 144 °C | CS(=O)(=O)NCC1CCC(Nc2nc3c(s2)COc2ccccc2-3)CC1 (stereo not drawn) (as salt: salt) [Example 70, 2-(4-Methylsulfonylaminomethyl)cyclohexylamino-4H-chromeno[4,3-d]thiazole]
 | 234 to 237 °C | COCC(=O)N[C@H]1CC[C@H](CNc2nc3c(s2)CCOc2ccccc2-3)CC1 (as salt: HCl) [Example 84, N1-{4-[(4,5-dihydrobenzo[2,3]oxepino[4,5-d][1,3]thiazol-2-ylamino)methyl]cyclohexyl}-2-methoxyacetamide]
 | 63 to 65 °C | COCC(=O)NC[C@H]1CC[C@H](Nc2nc3c(s2)CCCc2ccc(F)cc2-3)CC1 (as salt: HCl) [Example 80, N1-({4-[(9-fluoro-5,6-dihydro-4H-benzo[6,7]-cyclohepta-[d][1,3]thiazol-2-yl)amino]cyclohexyl}-methyl)-2-methoxyacetamide]
8.3 nM | 220 to 224 °C | COc1ccc(C)cc1S(=O)(=O)N[C@H]1CC[C@H](CNc2nc3c(s2)CCOc2ccccc2-3)CC1 [Example 51, trans-1-Aza-4,5-dihydro-2-{4-(2-methoxy-5-methyl-phenyl)-sulfonylamino}cyclohexylmethylamino-6-oxa-3-thia-benzo[e]azulene]
 | 100 to 105 °C (dec.) | COc1ccc(C)cc1S(=O)(=O)NC[C@H]1CC[C@H](Nc2nc3c(s2)CCOc2ccccc2-3)CC1 (as salt: HCl) [Example 48, trans-1-Aza-4,5-dihydro-2-{4-(2-methoxy-5-methyl)phenyl-sulfonylaminomethyl}cyclohexylamino-6-oxa-3-thia-benzo[e]azulene]
 | 210 to 213 °C | CCN(C=O)[C@H]1CC[C@H](CNc2nc3c(s2)CCOc2ccccc2-3)CC1 (as salt: HCl) [Example 87, trans-1-Aza-2-(4-(n-(ethyl) formamido)cyclohexyl)methyl-amino-4,5-dihydro-6-oxa-3-thia-benzo[e]azulene]
5.7 nM | 148 to 150 °C | CS(=O)(=O)NCc1ccc(Nc2nc3c(s2)CCCc2ccc(F)cc2-3)cc1 [Example 90, N-{4-[(9-Fluoro-5,6-dihydro-4H-benzo[6,7]cyclohepta-[d][1,3]thiazol-2-yl)amino]benzyl}methanesulfonamide]
 | 56 to 60 °C | COc1ccc(C)cc1S(=O)(=O)NCCOCCNc1nc2c(s1)CCCc1ccc(F)cc1-2 (as salt: HCl) [Example 58, 1-Aza-9-fluoro-4,5-dihydro-2-{2-[2-(2-methoxy-5-methylphenyl)sulfonylamino]ethoxy}ethylamino-3-thia-benzo[e]azulene]
22 nM | 224 to 225 °C | COc1ccc2c(c1)CCCc1sc(N[C@H]3CC[C@H](CNS(C)(=O)=O)CC3)nc1-2 [Example 72, trans-1-Aza-4,5-dihydro-8-methoxy-2-(4-methyl-sulfonylamino-methyl)cyclohexylamino-3-thia-benzo[e]azulene]
 | 87 to 89 °C | COc1ccc2c(c1)CCCc1sc(N[C@H]3CC[C@H](CNS(=O)(=O)C(C)C)CC3)nc1-2 (as salt: salt) [Example 73, trans-1-Aza-4,5-dihydro-2-(4-isopropylsulfonyl-aminomethyl)-cyclohexylamino-8-methoxy-3-thia-benzo[e]-azulene]
162 nM | 65 to 70 °C | COc1ccc2c(c1)OCCc1sc(NC[C@H]3CC[C@H](NS(C)(=O)=O)CC3)nc1-2 [Example 61, trans-1-Aza-4,5-dihydro-8-methoxy-2-{4-methyl-sulfonyl-amino)cyclohexylmethylamino-6-oxa-3-thia-benzo [e]azulene]
 | 94 to 97 °C | CCOC(=O)N[C@H]1CC[C@H](CNc2nc3c(s2)CCCc2ccc(F)cc2-3)CC1 (as salt: hydrochloride) [Example 68, trans-N2-(4-Ethoxycarbonylamino)cyclohexylmethyl-9-fluoro-5,6-dihydro-4H-benzo[6,7]cyclohepta[d][1,3]-thiazol-2-amine hydrochloride]
 | 225 to 230 °C | COc1cccc2c1OCCc1sc(NC[C@H]3CC[C@H](NS(C)(=O)=O)CC3)nc1-2 (as salt: hydrochloride) [Example 65, trans-N2-(4-Methylsulfonylamino)cyclohexylmethyl-7-methoxy-4,5-dihydro-benzo[2,3]oxepino[4,5-d][1,3]-thiazol-2-amine hydrochloride]
 | 175 to 178 °C | COCC(=O)NCc1ccc(Nc2nc3c(s2)CCCc2ccc(F)cc2-3)cc1 (as salt: HCl) [Example 89, N1-{4-[(9-fluoro-5,6-dihydro-4H-benzo[6,7]cyclohepta-[d][1,3]thiazol-2-yl)amino]benzyl}-2-methoxyacetamide]
66 nM | 159 to 162 °C | CS(=O)(=O)NCCOCCNc1nc2c(s1)CCCc1ccc(F)cc1-2 [Example 57, 1-Aza-9-fluoro-4,5-dihydro-2-{2-(2-methylsulfonyl-amino)ethoxy}ethylamino-3-thia-benzo[e]azulene]
31 nM | 170 to 172 °C | CCS(=O)(=O)N[C@H]1CC[C@H](CNc2nc3c(s2)CCOc2cc(OC)ccc2-3)CC1 [Example 60, trans-N2-(4-Ethylsulfonylamino)cyclohexylmethyl-8-methoxy-4,5-dihydro-benzo[2,3]oxepino[4,5-d][1,3]thiazol-2-amine]
 | 50 to 55 °C | CC(C)S(=O)(=O)NCCOCCNc1nc2c(s1)CCCc1ccc(F)cc1-2 (as salt: HCl) [Example 69, 1-Aza-9-fluoro-4,5-dihydro-2-(2-(2-isopropyl-sulfonylamino)-ethoxy)ethylamino-3-thia-benzo[e]-azulene]
 | 223 to 225 °C | O=C1OCCN1C[C@H]1CC[C@H](Nc2nc3c(s2)CCCc2ccc(F)cc2-3)CC1 (as salt: HCl) [Example 79, 3-({4-[(9-fluoro-5,6-dihydro-4H-benzo[6,7]cyclohepta-[d][1,3]thiazol-2-yl)amino]cyclohexyl}methyl)-1,3-oxazolan-2-one]
 | 206 to 208 °C | COc1cccc2c1OCCc1sc(NC[C@H]3CC[C@H](NS(=O)(=O)N(C)C)CC3)nc1-2 (as salt: HCl) [Example 66, trans-1-Aza-4,5-dihydro-7-methoxy-2-{4-dimethylamino-sulfonylamino}cyclohexylmethylamino-6-oxa-3-thia-benzo[e]azulene]
